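Dose response: 5 concentrations. Exposure: 48 h. Format: 96-well plates. Endpoint: linear interpolation; highest concentration if not reached. GI50 = concentration required for 50% inhibition of growth. Definition used: TGI = concentration required for complete inhibition of growth.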
Key:
Assay in all cases: NCI-60 cell line screen, 48 h
786-0 renal = tested on: 786-0 renal
A498 renal = tested on: A498 renal
A549 NSCLC = tested on: A549 NSCLC
ACHN renal = tested on: ACHN renal
CAKI-1 renal = tested on: CAKI-1 renal
CCRF-CEM leukemia = tested on: CCRF-CEM leukemia
DMS 114 small cell lung = tested on: DMS 114 small cell lung
EKVX NSCLC = tested on: EKVX NSCLC
HCC-2998 colon = tested on: HCC-2998 colon
HCT-116 colon = tested on: HCT-116 colon
HCT-15 colon = tested on: HCT-15 colon
HL-60(TB) leukemia = tested on: HL-60(TB) leukemia
HOP-18 NSCLC = tested on: HOP-18 NSCLC
HOP-62 NSCLC = tested on: HOP-62 NSCLC
HOP-92 NSCLC = tested on: HOP-92 NSCLC
HT29 colon = tested on: HT29 colon
IGROV1 ovarian = tested on: IGROV1 ovarian
K-562 leukemia = tested on: K-562 leukemia
KM12 colon = tested on: KM12 colon
KM20L2 colon = tested on: KM20L2 colon
LOX IMVI melanoma = tested on: LOX IMVI melanoma
LXFL 529 NSCLC = tested on: LXFL 529 NSCLC
M14 melanoma = tested on: M14 melanoma
M19-MEL melanoma = tested on: M19-MEL melanoma
MALME-3M melanoma = tested on: MALME-3M melanoma
MOLT-4 leukemia = tested on: MOLT-4 leukemia
NCI-H226 lung = tested on: NCI-H226 lung
NCI-H23 lung = tested on: NCI-H23 lung
NCI-H460 lung = tested on: NCI-H460 lung
OVCAR-3 ovarian = tested on: OVCAR-3 ovarian
OVCAR-4 ovarian = tested on: OVCAR-4 ovarian
OVCAR-5 ovarian = tested on: OVCAR-5 ovarian
OVCAR-8 ovarian = tested on: OVCAR-8 ovarian
RPMI-8226 leukemia = tested on: RPMI-8226 leukemia
RXF 393 renal = tested on: RXF 393 renal
RXF-631 renal = tested on: RXF-631 renal
SF-268 CNS = tested on: SF-268 CNS
SF-295 CNS = tested on: SF-295 CNS
SF-539 CNS = tested on: SF-539 CNS
SK-MEL-2 melanoma = tested on: SK-MEL-2 melanoma
SK-MEL-28 melanoma = tested on: SK-MEL-28 melanoma
SN12C renal = tested on: SN12C renal
SNB-19 CNS = tested on: SNB-19 CNS
SNB-75 CNS = tested on: SNB-75 CNS
SNB-78 CNS = tested on: SNB-78 CNS
SR leukemia = tested on: SR leukemia
SW-620 colon = tested on: SW-620 colon
TK-10 renal = tested on: TK-10 renal
U251 CNS = tested on: U251 CNS
UACC-257 melanoma = tested on: UACC-257 melanoma
UACC-62 melanoma = tested on: UACC-62 melanoma
UO-31 renal = tested on: UO-31 renal
XF 498 CNS = tested on: XF 498 CNS
BT-549 breast = tested on: BT-549 breast
COLO 205 colon = tested on: COLO 205 colon
DLD-1 colon = tested on: DLD-1 colon
DMS 273 small cell lung = tested on: DMS 273 small cell lung
DU-145 prostate = tested on: DU-145 prostate
HS 578T breast = tested on: HS 578T breast
MCF7 breast = tested on: MCF7 breast
MDA-MB-231 breast = tested on: MDA-MB-231 breast
MDA-MB-435 = tested on: MDA-MB-435
MDA-N = tested on: MDA-N
NCI-H522 lung = tested on: NCI-H522 lung
NCI/ADR-RES ovarian = tested on: NCI/ADR-RES ovarian
PC-3 prostate = tested on: PC-3 prostate
SK-MEL-5 melanoma = tested on: SK-MEL-5 melanoma
SK-OV-3 ovarian = tested on: SK-OV-3 ovarian
T-47D breast = tested on: T-47D breast

COc1ccc2cc3[nH]c(=O)cc(O)c3cc2c1OC
TGI (786-0 renal): > 100 µM
TGI (A498 renal): > 100 µM
TGI (A549 NSCLC): > 100 µM
TGI (ACHN renal): > 100 µM
TGI (CAKI-1 renal): > 100 µM
TGI (CCRF-CEM leukemia): > 100 µM
TGI (DMS 114 small cell lung): > 100 µM
TGI (EKVX NSCLC): > 100 µM
TGI (HCC-2998 colon): > 100 µM
TGI (HCT-116 colon): > 100 µM
TGI (HCT-15 colon): > 100 µM
TGI (HL-60(TB) leukemia): > 100 µM
TGI (HOP-18 NSCLC): > 100 µM
TGI (HOP-62 NSCLC): > 100 µM
TGI (HOP-92 NSCLC): > 100 µM
TGI (HT29 colon): > 100 µM
TGI (IGROV1 ovarian): > 100 µM
TGI (K-562 leukemia): > 100 µM
TGI (KM12 colon): > 100 µM
TGI (KM20L2 colon): > 100 µM
TGI (LOX IMVI melanoma): > 100 µM
TGI (LXFL 529 NSCLC): > 100 µM
TGI (M14 melanoma): > 100 µM
TGI (M19-MEL melanoma): > 100 µM
TGI (MALME-3M melanoma): > 100 µM
TGI (MOLT-4 leukemia): > 100 µM
TGI (NCI-H226 lung): > 100 µM
TGI (NCI-H23 lung): > 100 µM
TGI (NCI-H460 lung): > 100 µM
TGI (OVCAR-3 ovarian): > 100 µM
TGI (OVCAR-4 ovarian): > 100 µM
TGI (OVCAR-5 ovarian): > 100 µM
TGI (OVCAR-8 ovarian): > 100 µM
TGI (RPMI-8226 leukemia): > 100 µM
TGI (RXF 393 renal): > 100 µM
TGI (RXF-631 renal): > 100 µM
TGI (SF-268 CNS): > 100 µM
TGI (SF-295 CNS): > 100 µM
TGI (SF-539 CNS): > 100 µM
TGI (SK-MEL-2 melanoma): > 100 µM
TGI (SK-MEL-28 melanoma): > 100 µM
TGI (SN12C renal): > 100 µM
TGI (SNB-19 CNS): > 100 µM
TGI (SNB-75 CNS): > 100 µM
TGI (SNB-78 CNS): > 100 µM
TGI (SR leukemia): > 100 µM
TGI (SW-620 colon): > 100 µM
TGI (TK-10 renal): > 100 µM
TGI (U251 CNS): > 100 µM
TGI (UACC-257 melanoma): > 100 µM
TGI (UACC-62 melanoma): > 100 µM
TGI (UO-31 renal): > 100 µM
TGI (XF 498 CNS): > 100 µM

CCCCCCCCCCCCCCCCCCN(C)C(COC)COP(=O)([O-])OCC[N+](C)(C)C (stereo not given)
TGI (786-0 renal): 3.56 µM
TGI (A498 renal): 34.1 µM
TGI (A549 NSCLC): 21.1 µM
TGI (ACHN renal): 26.9 µM
TGI (BT-549 breast): 26 µM
TGI (CAKI-1 renal): 15.7 µM
TGI (CCRF-CEM leukemia): 7.41 µM
TGI (COLO 205 colon): 3.22 µM
TGI (DLD-1 colon): 13.8 µM
TGI (DMS 273 small cell lung): 2.92 µM
TGI (DU-145 prostate): 24.5 µM
TGI (EKVX NSCLC): 34.2 µM
TGI (HCC-2998 colon): 3.46 µM
TGI (HCT-116 colon): 17 µM
TGI (HL-60(TB) leukemia): 4.34 µM
TGI (HOP-18 NSCLC): 17 µM
TGI (HOP-62 NSCLC): 12.1 µM
TGI (HOP-92 NSCLC): 5.17 µM
TGI (HS 578T breast): 22.5 µM
TGI (HT29 colon): 9.44 µM
TGI (IGROV1 ovarian): 3.27 µM
TGI (K-562 leukemia): 31.3 µM
TGI (KM12 colon): 3.2 µM
TGI (KM20L2 colon): 6.92 µM
TGI (LOX IMVI melanoma): 18.8 µM
TGI (LXFL 529 NSCLC): 15.4 µM
TGI (M14 melanoma): 13.7 µM
TGI (M19-MEL melanoma): 12.9 µM
TGI (MALME-3M melanoma): 29.5 µM
TGI (MCF7 breast): 23.7 µM
TGI (MDA-MB-231 breast): 19.6 µM
TGI (MDA-MB-435): 33.9 µM
TGI (MDA-N): 31.1 µM
TGI (MOLT-4 leukemia): 4.28 µM
TGI (NCI-H226 lung): 12.1 µM
TGI (NCI-H23 lung): 23.9 µM
TGI (NCI-H460 lung): 4.38 µM
TGI (NCI-H522 lung): 10.7 µM
TGI (NCI/ADR-RES ovarian): > 58.3 µM
TGI (OVCAR-3 ovarian): 22.4 µM
TGI (OVCAR-4 ovarian): 12.3 µM
TGI (OVCAR-5 ovarian): 6.32 µM
TGI (OVCAR-8 ovarian): 26.3 µM
TGI (PC-3 prostate): 3.32 µM
TGI (RPMI-8226 leukemia): 5.85 µM
TGI (RXF 393 renal): 3.12 µM
TGI (RXF-631 renal): 26 µM
TGI (SF-268 CNS): 12.5 µM
TGI (SF-295 CNS): 10.3 µM
TGI (SF-539 CNS): 19 µM
TGI (SK-MEL-2 melanoma): 35.6 µM
TGI (SK-MEL-28 melanoma): 36.7 µM
TGI (SK-MEL-5 melanoma): 29.9 µM
TGI (SK-OV-3 ovarian): 25.8 µM
TGI (SN12C renal): 19.5 µM
TGI (SNB-19 CNS): 14.1 µM
TGI (SNB-75 CNS): 8.3 µM
TGI (SNB-78 CNS): 18.3 µM
TGI (SR leukemia): 22.9 µM
TGI (SW-620 colon): 21.2 µM
TGI (T-47D breast): 34.1 µM
TGI (TK-10 renal): 4.43 µM
TGI (U251 CNS): 4.2 µM
TGI (UACC-257 melanoma): 29.5 µM
TGI (UACC-62 melanoma): 19.2 µM
TGI (UO-31 renal): 31.4 µM
TGI (XF 498 CNS): 39.8 µM

CCOC(=O)NC1C2CC(=O)OC(O2)C1OC(C)=O (stereo not given)
TGI (786-0 renal): > 100 µM
TGI (A498 renal): > 100 µM
TGI (A549 NSCLC): > 100 µM
TGI (ACHN renal): > 100 µM
GI50 (BT-549 breast): > 100 µM
TGI (BT-549 breast): > 100 µM
TGI (CAKI-1 renal): > 100 µM
TGI (CCRF-CEM leukemia): > 100 µM
TGI (COLO 205 colon): > 100 µM
TGI (DLD-1 colon): > 100 µM
TGI (DMS 273 small cell lung): > 100 µM
GI50 (DU-145 prostate): > 100 µM
TGI (DU-145 prostate): > 100 µM
TGI (EKVX NSCLC): > 100 µM
TGI (HCC-2998 colon): > 100 µM
TGI (HCT-116 colon): > 100 µM
TGI (HCT-15 colon): > 100 µM
GI50 (HL-60(TB) leukemia): > 100 µM
TGI (HL-60(TB) leukemia): > 100 µM
TGI (HOP-18 NSCLC): > 100 µM
TGI (HOP-62 NSCLC): > 100 µM
TGI (HOP-92 NSCLC): > 100 µM
GI50 (HS 578T breast): > 100 µM
TGI (HS 578T breast): > 100 µM
TGI (HT29 colon): > 100 µM
TGI (IGROV1 ovarian): > 100 µM
TGI (K-562 leukemia): > 100 µM
TGI (KM12 colon): > 100 µM
TGI (KM20L2 colon): > 100 µM
TGI (LOX IMVI melanoma): > 100 µM
TGI (LXFL 529 NSCLC): > 100 µM
TGI (M14 melanoma): > 100 µM
TGI (M19-MEL melanoma): > 100 µM
TGI (MALME-3M melanoma): > 100 µM
GI50 (MCF7 breast): > 100 µM
TGI (MCF7 breast): > 100 µM
GI50 (MDA-MB-231 breast): > 100 µM
TGI (MDA-MB-231 breast): > 100 µM
GI50 (MDA-MB-435): > 100 µM
TGI (MDA-MB-435): > 100 µM
TGI (MOLT-4 leukemia): > 100 µM
TGI (NCI-H23 lung): > 100 µM
TGI (NCI-H460 lung): > 100 µM
TGI (NCI-H522 lung): > 100 µM
GI50 (NCI/ADR-RES ovarian): > 100 µM
TGI (NCI/ADR-RES ovarian): > 100 µM
TGI (OVCAR-3 ovarian): > 100 µM
TGI (OVCAR-4 ovarian): > 100 µM
TGI (OVCAR-5 ovarian): > 100 µM
TGI (OVCAR-8 ovarian): > 100 µM
GI50 (PC-3 prostate): > 100 µM
TGI (PC-3 prostate): > 100 µM
TGI (RPMI-8226 leukemia): > 100 µM
TGI (RXF 393 renal): > 100 µM
TGI (RXF-631 renal): > 100 µM
TGI (SF-268 CNS): > 100 µM
TGI (SF-295 CNS): > 100 µM
TGI (SF-539 CNS): > 100 µM
TGI (SK-MEL-2 melanoma): > 100 µM
TGI (SK-MEL-28 melanoma): > 100 µM
TGI (SK-MEL-5 melanoma): > 100 µM
TGI (SK-OV-3 ovarian): > 100 µM
TGI (SN12C renal): > 100 µM
TGI (SNB-19 CNS): > 100 µM
TGI (SNB-75 CNS): > 100 µM
TGI (SNB-78 CNS): > 100 µM
TGI (SR leukemia): > 100 µM
TGI (SW-620 colon): > 100 µM
GI50 (T-47D breast): > 100 µM
TGI (T-47D breast): > 100 µM
TGI (TK-10 renal): > 100 µM
TGI (U251 CNS): > 100 µM
TGI (UACC-257 melanoma): > 100 µM
TGI (UACC-62 melanoma): > 100 µM
TGI (UO-31 renal): > 100 µM

— PubChem BioAssay (NCI)
